Drawing on PubChem BioAssay AID220 (DTP/NCI, 2004), this text covers T/C for 14 molecules.

Values joined by “and” are separate entries in the source; they are usually repeats but may differ in a detail not shown here. Equal entries are not always repeated. Results filed as inconclusive are left out.

In this assay the test system is CD8F1 mice, subcutaneous mammary adenocarcinoma, T/C%. In words: NCI In Vivo Anticancer Drug Screen. Data for tumor model Mammary Adenocarcinoma CD8F1 (subcutaneous) in CD8F1. The following applies: higher = larger tumour. The method, boiled down:
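Tumor-bearing mice, transplantable model; readout survival or tumor size; value = treated (T) / vehicle control (C).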

Setting [1] is: endpoint: median tumor weight (est.), dose: 12.5 mg/kg/injection, schedule: Q07DX005 (ip), vehicle: Klucel (hydroxypropylcellulose) (HPC).
Setting [2] is: endpoint: median tumor weight (est.), dose: 25.0 mg/kg/injection, schedule: Q07DX005 (ip), vehicle: Klucel (hydroxypropylcellulose) (HPC).
Setting [3] is: endpoint: median tumor weight (est.), dose: 100.0 mg/kg/injection, schedule: Q07DX005 (ip), vehicle: Klucel (hydroxypropylcellulose) (HPC).
[4] abbreviates: endpoint: median tumor weight (est.), dose: 200.0 mg/kg/injection, schedule: Q07DX005 (ip), vehicle: Klucel (hydroxypropylcellulose) (HPC).
Where [5] appears, read: endpoint: median tumor weight (est.), dose: 400.0 mg/kg/injection, schedule: Q07DX005 (ip), vehicle: Klucel (hydroxypropylcellulose) (HPC).
Setting [6] is: endpoint: median tumor weight (est.), dose: 3.12 mg/kg/injection, schedule: Q07DX005 (ip), vehicle: Klucel (hydroxypropylcellulose) (HPC).
Setting [7] is: endpoint: median tumor weight (est.), dose: 6.25 mg/kg/injection, schedule: Q07DX005 (ip), vehicle: Klucel (hydroxypropylcellulose) (HPC).
[8] abbreviates: endpoint: median tumor weight (est.), dose: 50.0 mg/kg/injection, schedule: Q07DX005 (ip), vehicle: Klucel (hydroxypropylcellulose) (HPC).

As to `C[N+](C)(C)c1ncnc2c1ncn2C1CCCO1` (stereo not drawn), the T/C is, setting by setting: (endpoint: median tumor weight (est.), dose: 12.5 mg/kg/injection, schedule: Q07DX005 (ip), vehicle: saline) 85 % of control; (endpoint: median tumor weight (est.), dose: 25.0 mg/kg/injection, schedule: Q07DX005 (ip), vehicle: saline) 89 % of control; (endpoint: median tumor weight (est.), dose: 50.0 mg/kg/injection, schedule: Q07DX005 (ip), vehicle: saline) 87 % of control; (endpoint: median tumor weight (est.), dose: 100.0 mg/kg/injection, schedule: Q07DX005 (ip), vehicle: saline) 92 % of control.
Consider `CCC1(O)CC2CN(CCc3c([nH]c4ccccc34)C(C(=O)OC)(c3cc4c(cc3OC)N(C)C3C(O)(C(=O)NCCSSCCNC(=O)C5(O)C(O)C6(CC)C=CCN7CCC8(c9cc(C%10(C(=O)OC)CC%11CN(CCc%12c%10[nH]c%10ccccc%12%10)CC(O)(CC)C%11)c(OC)cc9N(C)C58)C76)C(O)C5(CC)C=CCN6CCC43C65)C2)C1` (stereo not drawn), for which the T/C (endpoint: median tumor weight change, dose: 1.9 mg/kg/injection, schedule: Q01DX001 (ip), vehicle: saline) is 45 % of control.
In the case of `CS(=O)(=O)[O-].CS(=O)(=O)[O-].NC1CCCCC1N.[Pt+4]` (stereo not drawn), the T/C runs as follows: (endpoint: median tumor weight (est.), dose: 0.63 mg/kg/injection, schedule: Q07DX005 (ip), vehicle: dextrose) 96 % of control; (endpoint: median tumor weight (est.), dose: 5.0 mg/kg/injection, schedule: Q07DX005 (ip), vehicle: dextrose) 4 % of control and 8 % of control.
`[N-]=[N+]=CC(=O)CCC(=O)C=[N+]=[N-]`: the T/C by setting is: (endpoint: median tumor weight (est.), dose: 6.25 mg/kg/injection, schedule: Q07DX005 (ip), vehicle: DMSO) 65 % of control; (endpoint: median tumor weight (est.), dose: 12.5 mg/kg/injection, schedule: Q07DX005 (ip), vehicle: DMSO) 73 % of control; (endpoint: median tumor weight (est.), dose: 25.0 mg/kg/injection, schedule: Q07DX005 (ip), vehicle: DMSO) 78 % of control; (endpoint: median tumor weight (est.), dose: 50.0 mg/kg/injection, schedule: Q07DX005 (ip), vehicle: DMSO) 38 % of control; (endpoint: median tumor weight (est.), dose: 100.0 mg/kg/injection, schedule: Q07DX005 (ip), vehicle: DMSO) 47 % of control.
As for `CN1CCN(Cc2nc3cccc4c3c([n+]2[O-])-c2ccccc2-4)CC1`, the T/C was 180 % of control (endpoint: median tumor weight (est.), dose: 12.5 mg/kg/injection, schedule: Q07DX005 (ip), vehicle: saline with Tween-80); 114 % of control (endpoint: median tumor weight (est.), dose: 25.0 mg/kg/injection, schedule: Q07DX005 (ip), vehicle: saline with Tween-80); 99 % of control (endpoint: median tumor weight (est.), dose: 50.0 mg/kg/injection, schedule: Q07DX005 (ip), vehicle: saline with Tween-80); 120 % of control (endpoint: median tumor weight (est.), dose: 100.0 mg/kg/injection, schedule: Q07DX005 (ip), vehicle: saline with Tween-80); 68 % of control (endpoint: median tumor weight (est.), dose: 200.0 mg/kg/injection, schedule: Q07DX005 (ip), vehicle: saline with Tween-80).
Take `ClCCCCCCCCCCc1ccccc1`: the T/C reads like this: under setting [1], 87 % of control; under setting [2], 88 % of control; under setting [3], 71 % of control; under setting [4], 71 % of control; under setting [5], 72 % of control.
Take `C[n+]1ccc2cc(N)c3c4ccccc4sc3c2c1`: the T/C (endpoint: median tumor weight (est.), dose: 1.56 mg/kg/injection, schedule: Q07DX004 (ip), vehicle: saline with Tween-80) is 83 % of control; the T/C (endpoint: median tumor weight (est.), dose: 3.12 mg/kg/injection, schedule: Q07DX004 (ip), vehicle: saline with Tween-80) is 121 % of control; the T/C (endpoint: median tumor weight (est.), dose: 6.25 mg/kg/injection, schedule: Q07DX004 (ip), vehicle: saline with Tween-80) was 65 % of control; the T/C (endpoint: median tumor weight (est.), dose: 12.5 mg/kg/injection, schedule: Q07DX004 (ip), vehicle: saline with Tween-80) was 105 % of control; the T/C (endpoint: median tumor weight (est.), dose: 25.0 mg/kg/injection, schedule: Q07DX004 (ip), vehicle: saline with Tween-80) was 110 % of control.
Turning to `C1CCC2OCCOCCOC3CCCCC3OCCOCCOC2C1` (stereo not drawn), the T/C is, setting by setting: under setting [6], 90 % of control; under setting [7], 55 % of control; under setting [2], 70 % of control; under setting [8], 83 % of control.
For the molecule `O=S(CCCl)CCCl`, the T/C runs as follows: (endpoint: median tumor weight (est.), dose: 1.56 mg/kg/injection, schedule: Q07DX005 (ip), vehicle: Klucel (hydroxypropylcellulose) (HPC)) 75 % of control; under setting [6], 100 % of control; under setting [7], 230 % of control; under setting [1], 91 % of control.
Take `CC(=O)[O][Pb]([O]C(C)=O)([c]1ccccc1)[c]1ccccc1`: the T/C by setting is: under setting [1], 124 % of control; under setting [2], 80 % of control; under setting [8], 65 % of control; under setting [3], 86 % of control; under setting [4], 75 % of control; under setting [5], 29 % of control.
As to `Cc1cc(NCCCCCCCCNc2cc(C)nc3cc(N(C)C)ccc23)c2ccc(N(C)C)cc2n1`, the T/C is 35 % of control (endpoint: median tumor weight change, dose: 31.0 mg/kg/injection, schedule: Q01DX001 (ip), vehicle: distilled water + Tween-80); 47 % of control and 54 % of control (endpoint: median tumor weight change, dose: 62.5 mg/kg/injection, schedule: Q01DX001 (ip), vehicle: distilled water + Tween-80); 105 % of control (endpoint: median tumor weight change, dose: 125.0 mg/kg/injection, schedule: Q01DX001 (ip), vehicle: distilled water + Tween-80 + alcohol); 104 % of control (endpoint: median tumor weight change, dose: 250.0 mg/kg/injection, schedule: Q01DX001 (ip), vehicle: distilled water + Tween-80 + alcohol).
`O=c1c(O)c(-c2cc(O)c(O)c(O)c2)oc2cc(O)cc(O)c12`: the T/C by setting is: (endpoint: median tumor weight (est.), dose: 12.5 mg/kg/injection, schedule: Q07DX005 (ip), vehicle: other) 85 % of control; (endpoint: median tumor weight (est.), dose: 25.0 mg/kg/injection, schedule: Q07DX005 (ip), vehicle: other) 85 % of control; (endpoint: median tumor weight (est.), dose: 50.0 mg/kg/injection, schedule: Q07DX005 (ip), vehicle: other) 122 % of control; (endpoint: median tumor weight (est.), dose: 100.0 mg/kg/injection, schedule: Q07DX005 (ip), vehicle: other) 70 % of control; (endpoint: median tumor weight (est.), dose: 200.0 mg/kg/injection, schedule: Q07DX005 (ip), vehicle: other) 89 % of control; (endpoint: median tumor weight (est.), dose: 400.0 mg/kg/injection, schedule: Q07DX005 (ip), vehicle: other) 70 % of control. In addition, the T/C reads like this: (endpoint: median tumor weight change, dose: 125.0 mg/kg/injection, schedule: Q01DX001 (ip), vehicle: saline with Tween-80) 61 % of control; (endpoint: median tumor weight change, dose: 250.0 mg/kg/injection, schedule: Q01DX001 (ip), vehicle: saline with Tween-80) 46 % of control; (endpoint: median tumor weight change, dose: 500.0 mg/kg/injection, schedule: Q01DX001 (ip), vehicle: saline with Tween-80) 40 % of control.
With `CCOc1cc2c(cc1C(C)c1ccc(OC)cc1)OCO2` (stereo not drawn), the T/C reads like this: (endpoint: median tumor weight change, dose: 62.5 mg/kg/injection, schedule: Q01DX001 (ip), vehicle: distilled water + alcohol) 102 % of control; (endpoint: median tumor weight change, dose: 125.0 mg/kg/injection, schedule: Q01DX001 (ip), vehicle: distilled water + alcohol) 62 % of control; (endpoint: median tumor weight change, dose: 250.0 mg/kg/injection, schedule: Q01DX001 (ip), vehicle: distilled water + alcohol) 67 % of control; (endpoint: median tumor weight change, dose: 500.0 mg/kg/injection, schedule: Q01DX001 (ip), vehicle: distilled water + alcohol) 91 % of control.
On to `Cc1cc(O)c(N=Nc2ccc(C(=O)O)cc2)cc1C`, for which the T/C by setting is: (endpoint: mean tumor weight (est.), dose: 200.0 mg/kg/injection, schedule: Q07DX001 (ip), vehicle: carboxymethylcellulose (CMC)) 82 % of control; (endpoint: mean tumor weight (est.), dose: 400.0 mg/kg/injection, schedule: Q07DX001 (ip), vehicle: carboxymethylcellulose (CMC)) 74 % of control; (endpoint: mean tumor weight, dose: 100.0 mg/kg/injection, schedule: Q07DX007 (ip), vehicle: saline) 106 % of control; (endpoint: mean tumor weight, dose: 200.0 mg/kg/injection, schedule: Q07DX007 (ip), vehicle: saline) 20 % of control; (endpoint: mean tumor weight, dose: 400.0 mg/kg/injection, schedule: Q07DX007 (ip), vehicle: saline) 35 % of control; (endpoint: median tumor weight (est.), dose: 25.0 mg/kg/injection, schedule: Q07DX005 (ip), vehicle: suspension in saline) 98 % of control. For the same molecule, the T/C reads like this: (endpoint: median tumor weight (est.), dose: 50.0 mg/kg/injection, schedule: Q07DX005 (ip), vehicle: suspension in saline) 90 % of control; (endpoint: median tumor weight (est.), dose: 100.0 mg/kg/injection, schedule: Q07DX005 (ip), vehicle: suspension in saline) 98 % of control; (endpoint: median tumor weight (est.), dose: 200.0 mg/kg/injection, schedule: Q07DX005 (ip), vehicle: suspension in saline) 108 % of control; (endpoint: median tumor weight (est.), dose: 400.0 mg/kg/injection, schedule: Q07DX005 (ip), vehicle: suspension in saline) 98 % of control.
